Here are results for 5 molecules from PubChem BioAssay AID1259411 (Chemical Carcinogenesis Research Information System (CCRIS), 2018).

The data set deals with rodent carcinogenicity bioassays, tumor incidence. In words: CCRIS carcinogenicity studies. The method, boiled down:
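Archive of carcinogenicity, mutagenicity, tumor promotion and tumor inhibition results drawn from journals, NCI reports and other sources, expert-reviewed; covers 1985-2011 and is no longer updated.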

The source made the active and inactive calls. The rule behind the calls is not given here.

`C/[N+]([O-])=N/CO[C@@H]1O[C@H](CO)[C@@H](O)[C@H](O)[C@H]1O`: the carcinogen call is, setting by setting: (Species: GUINEA PIG, Route: ORAL, Dose: 0, 5% IN DIET OF CYCAD MEAL, 2-3 5-D PERIODS, Tumor Site: Type of Lesion: LIVER: HEPATOCELLULAR CARCINOMA, BILE DUCT) “active; positive”; (Species: GUINEA PIG, Route: ORAL, Tumor Site: Type of Lesion: LIVER, BILE DUCT) “active; positive”; (Species: HAMSTER, Route: GAVAGE, Dose: 0.1, 0.15 MG/G BW, SINGLE DOSE, Tumor Site: Type of Lesion: LIVER: HEPATOCELLULAR ADENOMA, BILE DUCT: CARCINOMA, HEMANGIOENDOTHELIAL SARCOMA, LUNG: ADENOMA, INTESTINES, KIDNEY: CAR, Tumor Site: Type of Lesion: LIVER: HEPATOCELLULAR ADENOMA, BILE DUCT: CARCINOMA, HEMANGIOENDOTHELIAL SARCOMA, LUNG: ADENOMA, INTESTINES, KIDNEY: CAR) “active; positive”; (Species: HAMSTER, Route: ORAL, Tumor Site: Type of Lesion: LIVER, LUNG, INTESTINES, KIDNEY, Tumor Site: Type of Lesion: LIVER, LUNG, INTESTINES, KIDNEY) “active; positive”; (Species: HAMSTER, Route: SUBCUTANEOUS, Tumor Site: Type of Lesion: LIVER) “active; positive”; (Species: MONKEY, Strain/Sex: AFRICAN GREEN, Route: ORAL, Dose: 0, 3% (50-75 MG/KG) IN DIET OF CRUDE CYCAD MEAL, 5 D/WK FOR UP TO 11 YR, Tumor Site: Type of Lesion: UNSPECIFIED: NEOPLASM) “active; positive”. Further, the carcinogen call reads like this: (Species: MONKEY, Strain/Sex: CYNOMOLGUS, Route: ORAL, Dose: 0, 3% (50-75 MG/KG) IN DIET OF CRUDE CYCAD MEAL, 5 D/WK FOR UP TO 11 YR, Tumor Site: Type of Lesion: UNSPECIFIED: NEOPLASM) “active; positive”; (Species: MONKEY, Strain/Sex: RHESUS, Route: ORAL, Dose: 0, 3% (50-75 MG/KG) IN DIET OF CRUDE CYCAD MEAL, 5 D/WK FOR UP TO 11 YR, Tumor Site: Type of Lesion: UNSPECIFIED: NEOPLASM) “active; positive”; (Species: MOUSE, Route: SUBCUTANEOUS, Tumor Site: Type of Lesion: LIVER, LUNG) “active; positive”; (Species: RABBIT, Route: ORAL, Tumor Site: Type of Lesion: LIVER) “active; positive”; (Species: RAT, Route: ORAL, Tumor Site: Type of Lesion: INTESTINES, KIDNEY, LIVER, Tumor Site: Type of Lesion: INTESTINES, KIDNEY, LIVER) “active; positive”; (Species: RAT, Route: SUBCUTANEOUS, Tumor Site: Type of Lesion: KIDNEY, INTESTINES, LIVER, Tumor Site: Type of Lesion: KIDNEY, INTESTINES, LIVER) “active; positive”. Further, the carcinogen call is “active; positive” (Species: RAT, Strain/Sex: SPRAGUE-DAWLEY/MALE,FEMALE, Route: GAVAGE, Dose: 3 ML/KG BW CYCAD EXTRACT, 1/WK FOR 12 WK, Tumor Site: Type of Lesion: INTESTINES); “active; positive” (Species: RAT, Strain/Sex: SPRAGUE-DAWLEY/MALE,FEMALE, Route: RECTAL, Dose: 50 MG/KG BW INTO INTESTINE 1/WK FOR 12 WK, Tumor Site: Type of Lesion: INTESTINES); “active; positive” (Species: RAT, Strain/Sex: SPRAGUE-DAWLEY/MALE, Route: GAVAGE, Dose: 80, 250 MG/KG, SINGLE DOSE, Tumor Site: Type of Lesion: INTESTINES (COLON OR RECTUM), INTESTINES (JEJUNUM OR ILEUM), DUODENUM, Tumor Site: Type of Lesion: INTESTINES (COLON OR RECTUM), INTESTINES (JEJUNUM OR ILEUM), DUODENUM); “active; positive” (Species: RAT, Strain/Sex: SPRAGUE-DAWLEY/MALE, Route: GAVAGE, Dose: 80 MG/KG, 1/WK FOR 15 WK, Tumor Site: Type of Lesion: INTESTINES (COLON OR RECTUM), INTESTINES (JEJUNUM OR ILEUM)).
`c1ccc2nc3c(cc2c1)c1c(c2ccccc23)O1`: the carcinogen call was “active; positive” (Species: MOUSE, Strain/Sex: SWISS/FEMALE, Route: INTRAPERITONEAL, Dose: 0, 1.05 UMOL GIVEN AS 150 NMOL IN 5 µL DMSO WITHIN 24 HR OF BIRTH, 300 NMOL IN 10 µL DMSO ON D 8 OF LIFE, AND 600 NMOL I, Tumor Site: Type of Lesion: LUNG: ADENOMA) and “inactive; negative” (Species: MOUSE, Strain/Sex: SWISS/MALE, Route: INTRAPERITONEAL, Dose: 0, 1.05 UMOL GIVEN AS 150 NMOL IN 5 µL DMSO WITHIN 24 HR OF BIRTH, 300 NMOL IN 10 µL DMSO ON D 8 OF LIFE, AND 600 NMOL I).
`NC[N+](=O)[O-]`: the carcinogen call is “active; positive” (Species: RAT, Strain/Sex: BDVI/FEMALE, Route: GAVAGE, Dose: 0, 38, 76 MG/KG 1/WK FOR DURATION OF STUDY (STUDY DURATION: LIFETIME), Dose: 0, 38, 76 MG/KG 1/WK FOR DURATION OF STUDY (STUDY DURATION: LIFETIME), Tumor Site: Type of Lesion: SPINAL CORD: NEURINOMA, SPINAL NERVES: NEURINOMA) and “active; positive” (Species: RAT, Strain/Sex: BDVI/MALE, Route: GAVAGE, Dose: 0, 38, 76 MG/KG 1/WK FOR DURATION OF STUDY (STUDY DURATION: LIFETIME), Dose: 0, 38, 76 MG/KG 1/WK FOR DURATION OF STUDY (STUDY DURATION: LIFETIME), Tumor Site: Type of Lesion: SPINAL CORD: NEURINOMA, SPINAL NERVES: NEURINOMA).
As for `CCN(Cc1cccc(S(=O)(=O)O)c1)c1ccc(C(=C2C=CC(=[N+](CC)Cc3cccc(S(=O)(=O)O)c3)C=C2)c2ccc(O)cc2S(=O)(=O)[O-])cc1`, the carcinogen call runs as follows: (Species: MOUSE, Strain/Sex: SWISS-WEBSTER/FEMALE, Route: DERMAL, Dose: 0, 1% IN 0.1 ML DISTILLED WATER 1/WK FOR 19.5 MO (STUDY DURATION: 19.5 MO)) “inactive; negative”; (Species: MOUSE, Strain/Sex: SWISS-WEBSTER/MALE, Route: DERMAL, Dose: 0, 1% IN 0.1 ML DISTILLED WATER 1/WK FOR 19.5 MO (STUDY DURATION: 19.5 MO)) “inactive; negative”; (Species: RAT, Strain/Sex: FISCHER/FEMALE, Route: SUBCUTANEOUS, Dose: 0, 0.5 ML OF 3% SOLUTION IN DISTILLED WATER (0; 15 MG) 2/WK FOR 26 WK THEN 1/WK FOR 22 WK (STUDY DURATION: 11 MO), Dose: 0, 0.5 ML OF 3% SOLUTION IN DISTILLED WATER (0; 15 MG) 2/WK FOR 26 WK THEN 1/WK FOR 22 WK (STUDY DURATION: 11 MO), Tumor Site: Type of Lesion: INJECTION SITE: FIBROSARCOMA) “active; positive”; (Species: RAT, Strain/Sex: FISCHER/FEMALE, Route: SUBCUTANEOUS, Dose: 0, 0.5 ML OF 6% SOLUTION IN DISTILLED WATER (0; 30 MG) 2/WK FOR 19 WK THEN 3% SOLUTION (0; 15 MG) 2/WK FOR 9 WK FOLLOWED, Dose: 0, 0.5 ML OF 6% SOLUTION IN DISTILLED WATER (0; 30 MG) 2/WK FOR 19 WK THEN 3% SOLUTION (0; 15 MG) 2/WK FOR 9 WK FOLLOWED, Tumor Site: Type of Lesion: INJECTION SITE: FIBROSARCOMA) “active; positive”.
In the case of `Clc1ccc2c(c1)C(c1ccccc1)=NCc1nncn1-2`, the carcinogen call was “inactive; negative” (Species: MOUSE, Strain/Sex: B6C3F1/FEMALE, Route: ORAL, Dose: 0, 0.8, 3, 10 MG/KG IN DIET FOR 2 YR (STUDY DURATION: 2 YR), Dose: 0, 0.8, 3, 10 MG/KG IN DIET FOR 2 YR (STUDY DURATION: 2 YR)); “inactive; negative” (Species: MOUSE, Strain/Sex: B6C3F1/FEMALE, Route: ORAL, Dose: 0, 0.8, 3, 10 MG/KG/D IN DIET FOR 2 YR (STUDY DURATION: 2 YR), Dose: 0, 0.8, 3, 10 MG/KG/D IN DIET FOR 2 YR (STUDY DURATION: 2 YR)); “inactive; negative” (Species: MOUSE, Strain/Sex: B6C3F1/MALE, Route: ORAL, Dose: 0, 0.8, 3, 10 MG/KG IN DIET FOR 2 YR (STUDY DURATION: 2 YR), Dose: 0, 0.8, 3, 10 MG/KG IN DIET FOR 2 YR (STUDY DURATION: 2 YR)); “inactive; negative” (Species: MOUSE, Strain/Sex: B6C3F1/MALE, Route: ORAL, Dose: 0, 0.8, 3, 10 MG/KG/D IN DIET FOR 2 YR (STUDY DURATION: 2 YR), Dose: 0, 0.8, 3, 10 MG/KG/D IN DIET FOR 2 YR (STUDY DURATION: 2 YR)); “inactive; negative” (Species: RAT, Strain/Sex: SPRAGUE-DAWLEY/FEMALE, Route: ORAL, Dose: 0, 0.5, 2, 10 MG/KG IN DIET FOR 2 YR (STUDY DURATION: 2 YR), Dose: 0, 0.5, 2, 10 MG/KG IN DIET FOR 2 YR (STUDY DURATION: 2 YR)); “inactive; negative” (Species: RAT, Strain/Sex: SPRAGUE-DAWLEY/MALE, Route: ORAL, Dose: 0, 0.5, 2, 10 MG/KG IN DIET FOR 2 YR (STUDY DURATION: 2 YR), Dose: 0, 0.5, 2, 10 MG/KG IN DIET FOR 2 YR (STUDY DURATION: 2 YR)). For the same molecule, the carcinogen call runs as follows: (Species: RAT, Strain/Sex: STRAIN-CD/FEMALE, Route: ORAL, Dose: 0, 0.5, 2, 10 MG/KG/D IN DIET FOR 2 YR (STUDY DURATION: 2 YR), Dose: 0, 0.5, 2, 10 MG/KG/D IN DIET FOR 2 YR (STUDY DURATION: 2 YR)) “inactive; negative”; (Species: RAT, Strain/Sex: STRAIN-CD/MALE, Route: ORAL, Dose: 0, 0.5, 2, 10 MG/KG/D IN DIET FOR 2 YR (STUDY DURATION: 2 YR), Dose: 0, 0.5, 2, 10 MG/KG/D IN DIET FOR 2 YR (STUDY DURATION: 2 YR)) “inactive; negative”.
